Key:
[1] = system: GBM-A; assay: Broad cell line profiling, GBM-A; format: cell-based; details: Homo sapiens, Glioblastoma Cancer Stem Cell, read-out: PA IC50
From the text: (§1) • A panel of human and mouse cancer cell types used to assess the breadth of PA activity, including multiple therapy resistant metastatic mesenchymal tumor cell lines and primary glioblastoma patient-derived metastatic stem/tumor initiating cell populations.

[2] = system: HT-1080; assay: Broad cell line profiling, HT-1080; format: cell-based; details: HT-1080, Human Fibrosarcoma; read-out: PA IC50
From the text: as §1

[3] = system: NMD3 mRNA; assay: NMD3 mRNA level in cells; format: cell-based, human
Description: FIG. 6. Portimine A inhibits S phase entry in Jurkat cells. Portimine A downregulates NMD3 at protein level but upregulates in mRNA level in cells, as well as some essential apoptosis proteins. […] Protein degradation of p53, Mcl1, Bid, Bim, Noxa can be rescued by MG132 or Epoxomicin. (B) NMD3 mRNA increased after PA treatment, but not ePA control compound. Jurkat cells were treated with indicated compounds for 24 hr; Cells were then fixed and perform Propidium Iodide staining.
• 1) Portimine A and its functional analogs show stereo-selective acute toxicity in cancer cells (FIG. 1). […] (B) Structure of portimine related analogs: phenyl-portimine A (Ph-PA, 36) and epi-portimine A (ePA, 38). Structure of fully functionalized portimine A-based epimeric probe pair: portimine A-diazirine-alkyne (PA-DA, 35-2) and epi-portimine A-diazirine-alkyne (ePA-DA, 35-1). (C) Cell viability analysis of portimine A and analogs. Jurkat cells were treated with increasing concentrations of portimine A and analogs for 24 hours. All presented data as mean of biological replicated experiments (n=3). […] Jurkat cells were treated with portimine A or analogs for 12 hours at 10 nM. […] Cell lysates were fractionated by sucrose gradient (5-50%) and each fraction were analyzed by western blot. eIF6 levels increase in 60S subunit fraction and decrease in ribosome-free fractions after PA treatment. […]

[4] = system: HepG2; assay: Broad cell line profiling, HepG2; format: cell-based; details: Homo sapiens; HepG2, Hepatocellular Carcinoma; read-out: PA IC50
From the text: as §1

SMILES: C=CC1=C[C@@H]2[C@@H]3O[C@]4(CC[C@H](O4)C(C)C[C@@H](O)C3=O)CC(O)C3=NCC[C@@]32CC1 (stereo partly shown) [PA, portimine A]
- IC50 [1]: 2.6 nM
- IC50 [2]: 0.83 nM
- NMD3 mRNA [3]: increased
- IC50 [4]: 4.8 nM
